For this assay, the target named is T1, MtbRho (transcription termination factor Rho) (Mycobacterium tuberculosis, UniProt P9WHF3).
T1 construct: WT MtbRho, N-terminal His tag, hexamer
Put plainly: biochemical.

The structures appear in SMILES notation.

T1 sequence (P9WHF3 whole entry): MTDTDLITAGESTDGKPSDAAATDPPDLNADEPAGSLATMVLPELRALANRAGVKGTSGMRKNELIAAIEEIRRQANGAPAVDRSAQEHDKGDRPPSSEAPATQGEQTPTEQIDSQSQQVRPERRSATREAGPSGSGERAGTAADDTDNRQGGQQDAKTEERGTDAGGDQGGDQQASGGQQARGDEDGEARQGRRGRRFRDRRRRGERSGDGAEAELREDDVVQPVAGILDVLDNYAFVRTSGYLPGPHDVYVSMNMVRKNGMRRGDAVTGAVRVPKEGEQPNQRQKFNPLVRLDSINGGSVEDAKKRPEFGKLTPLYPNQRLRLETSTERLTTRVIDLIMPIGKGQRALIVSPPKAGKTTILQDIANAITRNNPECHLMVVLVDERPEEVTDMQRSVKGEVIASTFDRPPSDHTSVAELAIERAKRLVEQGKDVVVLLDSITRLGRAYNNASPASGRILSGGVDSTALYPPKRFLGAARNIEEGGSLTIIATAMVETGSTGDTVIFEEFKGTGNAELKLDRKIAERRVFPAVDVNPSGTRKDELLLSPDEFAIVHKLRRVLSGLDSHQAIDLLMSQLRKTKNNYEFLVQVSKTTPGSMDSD

On to `C=C1CCO[C@]2([C@@H](O)[C@@](C)(O)CO)NC(=O)[C@@]1(O)NC2=O` [BCM, bicyclomycin], for which the IC50 (as a rule, the point on the concentration scale where inhibition reaches its midpoint) is 157 ± 20 µM.

The values are drawn from paper PMC4499133, “ATP-dependent motor activity of the transcription termination factor Rho from Mycobacterium tuberculosis” (Nucleic Acids Research, 2015).
